Measured values as given in patent US12364695B2, “Methods of treating inflammatory disease” (INTRA-CELLULAR THERAPIES, INC., priority 2020, dated 2025).

Experiments:
[1] = system: Docosahexaenoic Acid Metabolites; assay: Detection of docosahexaenoic acid metabolites, mouse zymosan pleurisy model; assay type: in vivo; conditions: compared with controls
Experimental: (§1) Zymosan was injected into the pleural cavities of mice in order to induce sterile inflammation by the methods discussed in Example 1. Compound 1 was administered to test subjects to observe the effects on a variety of inflammatory biomarkers. Results were recorded after 4 hours. […] IFNγ, IL-1β, MCP1-β and TNF-α decreased following administration of Compound 1 in all serum and plasma samples.
(§2) Lipids are known to be involved in regulation of a multitude of cellular responses including cell growth and death, and inflammation/infection, via receptor-mediated pathways. Various lipids are involved in both the initiation and resolution of inflammation. Pro-resolving lipid mediators are produced naturally in the body from unsaturated fatty acids, such as arachidonic acid (AA) and docosahexaenoic acid (DHA). Further studies were carried out to identify metabolites of AA and DHA, which are summarized below in Tables 2 and 3.
(§3) As shown above in relation to AA metabolism, 12-HETE and 15-HETE, both intermediate mediators leading to resolution of inflammation, show increased occurrence compared with controls, while pro-inflammatory mediators TXB2, PGE2 and LTB4 all decrease. For the metabolism of DHA, each of 17-HDOHE, RVD5 and 14-HDOHE increase, all of which are related to resolution of inflammation.

[2] = system: leukocytes, neutrophils, and macrophages (M1/M2) at the site of inflammation; assay: Mouse zymosan model of sterile inflammation, flow cytometry of infiltrating cells; assay type: in vivo; conditions: for inflammatory resolution (shift from M1 to M2 macrophages): zymosan injection, FIGS. 1-9
Experimental: (§4) Zymosan is injected into the pleural cavities of mice in order to induce sterile inflammation. Infiltration of leukocytes, neutrophils, and macrophages are monitored at days 3 and 7 following injection. Detection of various cell types are identified according to the gating strategy outlined in Table 1 below.
In this model, injection of zymosan causes the recruitment of various waves of leukocytes, which are observed and recorded. Exudate volume increases to a maximum over a period of 24 hours, and neutrophils increase within 4 hours and reach a maximum by 48 hours. Lymphocytes of the adaptive immune system enter at a later stage, after three days, which is signaled by macrophages presenting antigens. A resolution phase is well documented in this model and is accompanied by decreased total macrophage number and transition into M2 phenotype.
In the studies, Compounds 1 and 2 were administered to the test subjects, and the effect the compounds had on infiltration of leukocytes, neutrophils, and macrophages was observed.
Similar tests were conducted with Compound 2, the results of which are illustrated in FIGS. 8 and 9. […] An additional test was carried out according to the same method. Mice were injected intraperitoneally with 1 mg Zymosan followed by 10 mg/kg Compound 1. Macrophage levels were recorded at injection, then at 4, 8, 16, 24, 48 and 72 hours post-injection.

[3] = system: BV2 cells; assay: Microglia chemotaxis assay (Transwell, ADP); assay type: cell-based; conditions: 100 μM ADP, 4 hours, FIG. 10
Experimental: BV2 cells were added to upper chamber of a 5 μm pore Transwell 96-well plate over a reservoir containing 100 μM ADP and incubated at 37° C. with 5% CO2 for 4 hours. After the incubation cells were harvested with pre-warmed cell detachment solution for 30 minutes in the same incubation conditions. 75 μl of this cell detachment solution was combined with 75 μl of culture medium in a new 96 well plate compatible with a fluorescence reader. Cell number in bottom chamber was determined by adding CyQuant® GR dye and reading in the Envision fluorescence reader at 480 nm EX/520 nm EM.

[4] = system: Arachidonic Acid Metabolites; assay: Detection of arachidonic acid metabolites, mouse zymosan pleurisy model; assay type: in vivo; conditions: compared with controls
Experimental: as §1, §2, §3

[5] = system: MCP-1/CCL2; assay: Cytokine production in plasma following zymosan sterile insult (FIG. 7); assay type: in vivo, mouse; conditions: at 3 and 7 days, in comparison with control groups
Experimental: FIG. 7 depicts cytokine production in plasma in test subjects following sterile insult when treated with Compound 1.
as §4

[6] = system: cytokine markers (IFNγ, IL-1β, MCP1-β, TNF-α, IL10); assay: Inflammatory biomarkers in mouse zymosan pleurisy model; assay type: in vivo; conditions: after 4 hours
Experimental: as §1

CN1C(=O)c2c(nn(Cc3ccc(-c4cccc(F)n4)cc3)c2Nc2ccccc2)N2C1=N[C@@H]1CCC[C@@H]12 [Compound 1]
14-HDOHE (resolution mediator) [1]: Increase
17-HDOHE (intermediate mediator linked to resolution) [1]: Increase
RVD5 (intermediate mediator linked to resolution) [1]: Increase
M1 macrophage levels (CD80+, iNOS+) ([2]; 1 mg Zymosan i.p. then 10 mg/kg, all observed times, FIGS. 11A and 11B): lower
Arg1+ M2 macrophages ([2]; 10 mg/kg, at 4 hours, FIG. 12A): increased
CD206+ M2 macrophages ([2]; 10 mg/kg, relative to control at 2 and 3 days, FIG. 12B): significantly increased
total numbers of CD38+ macrophages ([2]; day 3, FIG. 5A): decreased
number of Egr2+ macrophages ([2]; day 3, all animal groups, FIG. 5B): decreased
MFI for CD38+ on macrophages ([2]; day 3, increase in all groups, FIG. 6A): lowest value
MFI for CD38+ on macrophages ([2]; day 7, all groups): decreased
percentage of neutrophils relative to CD45+ leukocytes ([2]; day 7, all subjects, FIG. 3B): dropped significantly
number of neutrophils ([2]; day 7, compared with disease only and vehicle animals, FIG. 3A): less dramatic decrease
MFI for Egr2+ on macrophages ([2]; days 3 and 7, compared to naïve, all groups): decreased
Egr2+ cell number and percent ([2]; overall trend, day 7): tended to increase
number of CD38+ cells ([2]; overall trend, day 7): tended to decrease
inflammatory resolution (shift from M1 to M2 macrophages) [2]: enhanced inflammatory resolution
motility of BV2 cells across the membrane [3]: marked dampening effect
5-HETE (intermediate mediator linked to resolution) [4]: No change
12-HETE (intermediate mediator linked to resolution) [4]: Increase
15-HETE (intermediate mediator linked to resolution) [4]: Increase
LTB4 (pro-inflammatory mediator) [4]: No change
PGE2 (pro-inflammatory mediator) [4]: Decrease
TXB2 (pro-inflammatory mediator) [4]: Decrease
inflammatory biomarkers (MCP-1/CCL2) in plasma [5]: less inflammatory biomarkers
IFNγ ([6]; serum and plasma): decreased
IL-1β ([6]; serum and plasma): decreased
MCP1-β ([6]; serum and plasma): decreased
TNF-α ([6]; serum and plasma): decreased
IL10 ([6]; serum): decrease

CN1C(=O)c2c(nn(Cc3ccc(-c4ccccn4)cc3)c2Nc2ccccc2)N2C1=N[C@@H]1CCC[C@@H]12 [Compound 2]
CD38+ macrophages ([2]; 3 mg/kg, day 7, FIG. 8): significant drop
Erg2+ macrophages ([2]; 3 mg/kg, day 7, FIG. 9): sharp and significant increase
inflammatory resolution (shift from M1 to M2 macrophages) [2]: enhanced inflammatory resolution
